Values quoted from earlier work as cited in US20200289412A1, “BIOENHANCED SPIRULINA LOZENGE FORMULATION” (priority 2019, published 2020).

How the values were obtained:
tumor cell = details: time-dependent; not directly killing cancer cells
[1] = tested on: human immunodeficiency virus-1 virus (HIV-1)

Row | Substance | tumor cell growth (tumor cell) | in vitro replication (Herpes simplex type I) | in vitro replication (influenza A virus) | in vitro replication (measles virus) | in vitro replication (mumps virus) | in vitro replication [1] | in vitro replication (human cytomegalovirus)
1 | Spirulina polysaccharide [PSP] | inhibiting tumor cell growth |  |  |  |  |  | 
2 | calcium spirulan [Ca-Sp] |  | inhibits the in vitro replication | inhibits the in vitro replication | inhibits the in vitro replication | inhibits the in vitro replication | inhibits the in vitro replication | inhibits the in vitro replication
